Measurements reported in patent publication US6737383B1, “Herbicidal oxadiazolidines” (priority 1999, dated 2004).

What was measured:
duck salad = experiment: Test B flood test duck salad; assay type: in vivo, Heteranthera limosa
How it was run: (§1)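 Read-out is a visual response score from 0 (no effect) to 10 (complete control), assigned by comparison with untreated controls. Treatment was applied at the 2-leaf stage, and plants stayed in the greenhouse for twelve to sixteen days before scoring.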

velvetleaf = experiment: Test B pre/postemergence velvetleaf; assay type: in vivo, Abutilon theophrasti
How it was run: (§2)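 Response is a visual 0-to-10 score relative to untreated plants, where 0 means no effect and 10 means complete control, taken twelve to sixteen days after application. Treatments went onto soil at planting and onto foliage of 1- to 4-leaf plants, using a surfactant-containing non-phytotoxic solvent.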

morningglory = experiment: Test B pre/postemergence morningglory; assay type: in vivo, Ipomoea hederacea
How it was run: as §2

wild oat = experiment: Test B pre/postemergence wild oat; assay type: in vivo, Avena fatua
How it was run: as §2

blackgrass = experiment: Test B pre/postemergence blackgrass; assay type: in vivo, Alopecurus myosuroides
How it was run: as §2

purple nutsedge = experiment: Test B pre/postemergence purple nutsedge; assay type: in vivo, Cyperus rotundus
How it was run: as §2

rape = experiment: Test B pre/postemergence rape; assay type: in vivo, Brassica napus
How it was run: as §2

surinam grass = experiment: Test B pre/postemergence surinam grass; assay type: in vivo, Brachiaria decumbens
How it was run: as §2

crabgrass = experiment: Test B pre/postemergence crabgrass; assay type: in vivo, Digitaria sanguinalis
How it was run: as §2

giant foxtail = experiment: Test B pre/postemergence giant foxtail; assay type: in vivo, Setaria faberii
How it was run: as §2

soybean = experiment: Test B pre/postemergence soybean; assay type: in vivo, Glycine max
How it was run: as §2

wheat = experiment: Test B pre/postemergence wheat; assay type: in vivo, Triticum aestivum
How it was run: as §2

bedstraw = experiment: Test B pre/postemergence bedstraw; assay type: in vivo, Galium aparine
How it was run: as §2

rice = experiment: Test B flood test rice; assay type: in vivo, Oryza sativa
How it was run: as §1

smallflower flatsedge = experiment: Test B flood test smallflower flatsedge; assay type: in vivo, Cyperus difformis
How it was run: as §1

corn = experiment: Test B pre/postemergence corn; assay type: in vivo, Zea mays
How it was run: as §2

[1] = Rate 62 g/ha, headed Pre-emergence (flood test species), scale 0 to 10 (0 no effect, 10 complete control)
[2] = Rate 125 g/ha, Pre-emergence, flood test species, scale 0 to 10 where 0 is no effect and 10 is complete control
[3] = Rate 250 g/ha, Pre-emergence, flood-test species, scale 0 to 10, 0 is no effect, 10 is complete control
[4] = Rate 500 g/ha, Pre-emergence, flood test species, scale 0 to 10 (0 no effect, 10 complete control)
[5] = Preemergence, Rate 62 g/ha, scale of 0 to 10 where 0 is no effect and 10 is complete control
[6] = Preemergence, Rate 250 g/ha, scale of 0 to 10 where 0 is no effect and 10 is complete control
[7] = Preemergence, Rate 500 g/ha, scale of 0 to 10 where 0 is no effect and 10 is complete control
[8] = Rate 62 g/ha, Postemergence, scale of 0 to 10 where 0 is no effect and 10 is complete control
[9] = Rate 125 g/ha, Postemergence, scale 0 to 10
[10] = Rate 125 g/ha, Preemergence, scale of 0 to 10 where 0 is no effect and 10 is complete control
[11] = Rate 500 g/ha, Postemergence, scale 0 to 10, 0 no effect, 10 complete control

**Q.** What does the source list for Cc1nc(C)c(Cn2c(=O)on(C(=O)N(c3ccc(F)cc3F)C(C)C)c2=O)s1 [Compound 233]?
**A.** Ducksalad plant response rating (duck salad; [1]): 0; Ducksalad plant response rating (duck salad; [2]): 0; Ducksalad plant response rating (duck salad; [3]): 0; Ducksalad plant response rating (duck salad; [4]): 0; Velvetleaf plant response rating (velvetleaf; [5]): 0; Velvetleaf plant response rating (velvetleaf; [6]): 2; Plant response rating, Velvetleaf (velvetleaf; [7]): 7; Velvetleaf plant response rating (velvetleaf; [8]): 2; Velvetleaf plant response rating (velvetleaf; [9]): 2; Velvetleaf plant response rating (velvetleaf; [10]): 0; Plant response rating (0 to 10; 0 is no effect, 10 is complete control), Velvetleaf (velvetleaf; Rate 250 g/ha, Postemergence): 3; Velvetleaf plant response rating (velvetleaf; [11]): 3; Morningglory plant response rating (morningglory; [5]): 0; Morningglory plant response rating (morningglory; [6]): 0; Plant response rating, Morningglory (morningglory; [7]): 2; Morningglory plant response rating (morningglory; [8]): 3; Morningglory plant response rating (morningglory; [9]): 3; Morningglory plant response rating (morningglory; [10]): 0; Plant response rating (0 to 10; 0 is no effect, 10 is complete control), Morningglory (morningglory; Rate 250 g/ha, Postemergence): 3; Morningglory plant response rating (morningglory; [11]): 8; Wild oats plant response rating (wild oat; [5]): 0; Wild oats plant response rating (wild oat; [6]): 2; Plant response rating, Wild oats (wild oat; [7]): 6; Wild oats plant response rating (wild oat; [8]): 0; Wild oats plant response rating (wild oat; [9]): 0; Wild oats plant response rating (wild oat; [10]): 1; Plant response rating (0 to 10; 0 is no effect, 10 is complete control), Wild oats (wild oat; Rate 250 g/ha, Postemergence): 2; Wild oats plant response rating (wild oat; [11]): 2; Blackgrass plant response rating (blackgrass; [5]): 2; Blackgrass plant response rating (blackgrass; [6]): 8; Plant response rating, Blackgrass (blackgrass; [7]): 9; Blackgrass plant response rating (blackgrass; [8]): 0; Blackgrass plant response rating (blackgrass; [9]): 0; Blackgrass plant response rating (blackgrass; [10]): 2; Plant response rating (0 to 10; 0 is no effect, 10 is complete control), Blackgrass (blackgrass; Rate 250 g/ha, Postemergence): 2; Blackgrass plant response rating (blackgrass; [11]): 5; Nutsedge plant response rating (purple nutsedge; [5]): 0; Nutsedge plant response rating (purple nutsedge; [6]): 0; Nutsedge plant response rating (purple nutsedge; [8]): 0; Nutsedge plant response rating (purple nutsedge; [9]): 0; Plant response rating (0 to 10; 0 is no effect, 10 is complete control), Nutsedge (purple nutsedge; Rate 250 g/ha, Postemergence): 0; Nutsedge plant response rating (purple nutsedge; [11]): 0; Rape plant response rating (rape; [5]): 0; Rape plant response rating (rape; [6]): 0; Plant response rating, Rape (rape; [7]): 3; Rape plant response rating (rape; [8]): 2; Rape plant response rating (rape; [9]): 2; Rape plant response rating (rape; [10]): 0; Plant response rating (0 to 10; 0 is no effect, 10 is complete control), Rape (rape; Rate 250 g/ha, Postemergence): 2; Rape plant response rating (rape; [11]): 3; B. signalgrass plant response rating (surinam grass; [5]): 0; B. signalgrass plant response rating (surinam grass; Preemergence, Rate 250 g/ha, scale 0 to 10, 0 is no effect, 10 is complete control): 4; Plant response rating, B. signalgrass (surinam grass; [7]): 4; B. signalgrass plant response rating (surinam grass; [8]): 0; B. signalgrass plant response rating (surinam grass; Rate 125 g/ha, Postemergence, scale 0 (no effect) to 10 (complete control)): 0; B. signalgrass plant response rating (surinam grass; [10]): 2; Plant response rating (0 to 10; 0 is no effect, 10 is complete control), B. signalgrass (surinam grass; Rate 250 g/ha, Postemergence): 0; B. signalgrass plant response rating (surinam grass; [11]): 1; Crabgrass plant response rating (crabgrass; [5]): 5; Crabgrass plant response rating (crabgrass; [6]): 9; Plant response rating, Crabgrass (crabgrass; [7]): 10; Crabgrass plant response rating (crabgrass; [8]): 0; Crabgrass plant response rating (crabgrass; [9]): 0; Crabgrass plant response rating (crabgrass; [10]): 6; Plant response rating (0 to 10; 0 is no effect, 10 is complete control), Crabgrass (crabgrass; Rate 250 g/ha, Postemergence): 1; Crabgrass plant response rating (crabgrass; [11]): 6; Giant foxtail plant response rating (giant foxtail; [5]): 7; Giant foxtail plant response rating (giant foxtail; [6]): 9; Plant response rating, Giant foxtail (giant foxtail; [7]): 10; Giant foxtail plant response rating (giant foxtail; [8]): 0; Giant foxtail plant response rating (giant foxtail; [9]): 0; Giant foxtail plant response rating (giant foxtail; [10]): 7; Plant response rating (0 to 10; 0 is no effect, 10 is complete control), Giant foxtail (giant foxtail; Rate 250 g/ha, Postemergence): 3; Giant foxtail plant response rating (giant foxtail; [11]): 6; Soybean plant response rating (soybean; [5]): 0; Soybean plant response rating (soybean; [6]): 0; Plant response rating, Soybean (soybean; [7]): 0; Soybean plant response rating (soybean; [8]): 3; Soybean plant response rating (soybean; [9]): 3; Soybean plant response rating (soybean; [10]): 0; Plant response rating (0 to 10; 0 is no effect, 10 is complete control), Soybean (soybean; Rate 250 g/ha, Postemergence): 3; Soybean plant response rating (soybean; [11]): 5; Wheat plant response rating (wheat; [5]): 0; Wheat plant response rating (wheat; [6]): 0; Plant response rating, Wheat (wheat; [7]): 0; Wheat plant response rating (wheat; [8]): 0; Wheat plant response rating (wheat; [9]): 0; Wheat plant response rating (wheat; [10]): 0; Plant response rating (0 to 10; 0 is no effect, 10 is complete control), Wheat (wheat; Rate 250 g/ha, Postemergence): 0; Wheat plant response rating (wheat; [11]): 0; Bedstraw plant response rating (bedstraw; [5]): 0; Bedstraw plant response rating (bedstraw; [6]): 0; Plant response rating, Bedstraw (bedstraw; [7]): 0; Bedstraw plant response rating (bedstraw; [8]): 0; Bedstraw plant response rating (bedstraw; [9]): 0; Bedstraw plant response rating (bedstraw; [10]): 0; Plant response rating (0 to 10; 0 is no effect, 10 is complete control), Bedstraw (bedstraw; Rate 250 g/ha, Postemergence): 3; Bedstraw plant response rating (bedstraw; [11]): 5; Rice plant response rating (rice; [1]): 0; Rice plant response rating (rice; [2]): 0; Rice plant response rating (rice; [3]): 0; Rice plant response rating (rice; [4]): 0; S. Flatsedge plant response rating (smallflower flatsedge; [1]): 0; S. Flatsedge plant response rating (smallflower flatsedge; [2]): 0; S. Flatsedge plant response rating (smallflower flatsedge; [3]): 0; S. Flatsedge plant response rating (smallflower flatsedge; [4]): 0; Corn plant response rating (corn; [5]): 0; Corn plant response rating (corn; [6]): 0; Plant response rating, Corn (corn; [7]): 0; Corn plant response rating (corn; [8]): 0; Corn plant response rating (corn; [9]): 0; Corn plant response rating (corn; [10]): 0; Plant response rating (0 to 10; 0 is no effect, 10 is complete control), Corn (corn; Rate 250 g/ha, Postemergence): 0; Corn plant response rating (corn; [11]): 0
